Test results taken from patent publication US20260053765A1, “COMPOSITIONS AND METHODS FOR THE IMPROVEMENT OF MEMORY” (THE CHILDREN'S HOSPITAL OF PHILADELPHIA, priority 2016, published 2026).

How the values were obtained:
[1] = within one hour of administration; cited from earlier work
[2] = test system: fluid percussion injury mice; assay: Conditioned fear response (CFR) after fluid percussion injury, GTA by oral gavage; assay type: in vivo, mouse; details: 5 mg/kg GTA oral gavage for 5 days, CFR on day 7
Description: A fluid percussion injury assay was performed. Briefly, a craniotomy was performed on anesthetized mice using a 3 mm trephine and a Luer-Hoc needle hub attached to the skull and capped. The following day, a fluid percussion injury device was employed to deliver a pulse of saline through the hub at a pressure between 1.4-2.14 atm, producing a mild to moderate percussion injury. Sham animals received all anesthesia and surgical procedures except for the fluid pulse.
Mice were allowed to recover for one day. Mice were then treated with 5 mg/kg of glyceryl triacetate (GTA) via oral gavage for 5 days. The conditioned fear response (CFR) assay was performed on day 7.

CC(=O)OCC(COC(C)=O)OC(C)=O [GTA, glyceryl triacetate]
increase of acetate levels in the brain [1]: over 15 fold | conditioned fear response (freezing) [2]: showed a similar fear response to sham animals and a statistically superior (P<0.05) response to those mice receiving the brain injury without treatment
